Source: patent US20220183937A1, “METHOD FOR IMPROVING THE PERFORMANCE OF A FRAGRANCE OR A FRAGRANCE MIXTURE” (SYMRISE AG, priority 2019, published 2022)

What was measured:
[1] = Boiling point of fragrance raw materials
[2] = LogP of fragrance raw materials
[3] = Example 2, fragrances for thermo boost performance, head range 230.1 a 300.0
[4] = Example 1, fragrances for long lasting performance, head range 1.00 a 230.0
[5] = Example 1, fragrances for long lasting performance, head range 1.00 a 3.00
[6] = Example 2, fragrances for thermo boost performance, head range 0.00 a 3.00

Compound	Boiling Point [1, 3]	Boiling Point [1, 4]	other results
CCCC1CCCC(=O)O1 (stereo not drawn) [OCTALACTONE DELTA]	250 °C	–	–
CCCCCC(=O)OCC [ETHYL CAPROATE]	–	170.1 °C	–
Cc1csc(C(C)C)n1 [ISOPROPYL METHYL THIAZOLE-2,4]	–	198 °C	–
COc1ccc(C=O)cc1 [ANISIC ALDEHYDE PURE, ANISIC ALDEHYDE]	–	221.6 °C	–
CC(=O)c1ccccc1 [ACETOPHENONE]	–	189.8 °C	–
Cc1ccc(O)cc1 [CRESOL PARA]	–	190.8 °C	logP [2, 5]: 2.06
CCOC(=O)Cc1ccccc1 [ETHYL PHENYL ACETATE]	234.3 °C	–	logP (physchem): 2.57
CCCCC1CCCC(=O)O1 (stereo not drawn) [NONALACTONE DELTA]	267 °C	–	logP [2, 6]: 2.08
CC1(C)[C@@H]2CC[C@@]1(C)[C@H](O)C2 (racemic) [ISOBORNEOL]	–	210 °C	–
C=CCOC(=O)COC1CCCCC1 [CYCLOGALBANAT®]	254.9 °C	–	–
COc1cc(C=O)ccc1O [VANILLIN]	274.3 °C	–	logP [2]: 1.05
CC(=O)OCC(C)C [ISOBUTYL ACETATE]	–	111.7 °C	–
CCCCOC(C)=O [BUTYL ACETATE]	–	125.8 °C	logP [2]: 1.85
COC(OC)C(C)c1ccccc1 (stereo not drawn) [HYDRATROPIC ALDEHYDE DIMETH.ACET]	–	227.2 °C	–
CCOc1cc(COC)ccc1O [METHYL DIANTILIS]	282.4 °C	–	logP [2, 6]: 1.61
CCOC(=O)CC [ETHYL PROPIONATE]	–	102.3 °C	logP [2]: 1.36
MENTHONE/ISOMENTHONE [MENTHONE/ISOMENTHONE RAC.]	–	213 °C	logP [2, 5]: 2.87
CCCCCCOC(C)=O [HEXYL ACETATE]	–	170.1 °C	–
CCCC(C)C(=O)OCC (stereo not drawn) [MANZANATE]	–	157.1 °C	logP [2, 5]: 2.76
CC(=O)OC(C)c1ccccc1 (stereo not drawn) [STYRALYL ACETATE]	–	223.1 °C	–

Compound	Boiling Point [1, 3]	Boiling Point [1, 4]	other results
CC1=CC(C)C(C=O)CC1 (stereo not drawn) [VERTOCITRAL]	–	200.5 °C	–
O=Cc1ccc2c(c1)OCO2 [HELIOTROPIN]	257 °C	–	logP [2, 6]: 1.77
O=c1ccc2ccccc2o1 [COUMARIN]	290.7 °C	–	–
CC/C=C\CC/C=C/C=O [NONADIENAL TRANS,CIS-2,6]	–	208.7 °C	–
CC/C=C\CCOC(C)OCC (stereo not drawn) [LEAF ACETAL]	–	201.4 °C	logP [2, 5]: 2.95
CCCCCCCC=O [ALDEHYDE C 8]	–	176 °C	logP [2, 5]: 2.78
COC(Cc1ccccc1)OC	–	219.8 °C	logP [2]: 1.93
CCCCCC1CCC(=O)O1 (stereo not drawn) [ALDEHYDE C18 SO-CALLED]	265.5 °C	–	–
CC(=O)c1nccs1 [ACETYL THIAZOLE-2]	–	209 °C	–
CC(C)(CO)Cc1ccccc1 [MUGUETALCOHOL]	260.6 °C	–	–
CCCC1CCC(=O)O1 (stereo not drawn) [HEPTALACTONE GAMMA]	230.3 °C	–	logP [2, 6]: 1.09
CCOC(=O)c1ccccc1 [ETHYL BENZOATE]	–	215.6 °C	logP (physchem): 2.32
CCOC(=O)COc1ccccc1 [ETHYL PHENOXY ACETATE]	252.8 °C	–	–
CC(CC=O)c1ccccc1 (stereo not drawn) [TRIFERNAL]	–	228.4 °C	logP [2, 5]: 2.45
CCCCCC(=O)CC [OCTANONE-3]	–	163.6 °C	–
C=CCOC(=O)COCCC(C)C [ALLYL AMYL GLYCOLATE]	–	217.7 °C	–
ISOOCTANONE	–	150.5 °C	logP [2, 5]: 2.15
CCCCCC#CC(=O)OC [METHYL HEPTIN CARBONATE]	–	205.3 °C	logP [2, 5]: 2.6
COc1nccnc1CC(C)C [ISOBUTYL METHOXYPYRAZINE-3,2]	236.5 °C	–	–
